Measurements from patent publication US8568736B2, “Polypeptide derivatives of parathyroid hormone (PTH)” (The General Hospital Corporation, priority 1999, dated 2013).
“And” between values parts separate entries of the source, which are not always exact repeats. Equal values may be shown once. Read-outs that look alike come from different tables or passages of the source. No end group written: not given here.

Legend:
WT hPTH-1 receptor = target: T1, WT hPTH-1 receptor (Homo sapiens, UniProt Q03431); experiment: cAMP stimulation in COS-7 cells transiently transfected with WT hPTH-1 receptor; assay type: cell-based
T1 construct: encoding the intact hPTH-1 receptor (HK-WT); expressed in transfected cells; host or cells: COS-7, transient, pcDNA-1 plasmid
T1 sequence (Q03431 27-593): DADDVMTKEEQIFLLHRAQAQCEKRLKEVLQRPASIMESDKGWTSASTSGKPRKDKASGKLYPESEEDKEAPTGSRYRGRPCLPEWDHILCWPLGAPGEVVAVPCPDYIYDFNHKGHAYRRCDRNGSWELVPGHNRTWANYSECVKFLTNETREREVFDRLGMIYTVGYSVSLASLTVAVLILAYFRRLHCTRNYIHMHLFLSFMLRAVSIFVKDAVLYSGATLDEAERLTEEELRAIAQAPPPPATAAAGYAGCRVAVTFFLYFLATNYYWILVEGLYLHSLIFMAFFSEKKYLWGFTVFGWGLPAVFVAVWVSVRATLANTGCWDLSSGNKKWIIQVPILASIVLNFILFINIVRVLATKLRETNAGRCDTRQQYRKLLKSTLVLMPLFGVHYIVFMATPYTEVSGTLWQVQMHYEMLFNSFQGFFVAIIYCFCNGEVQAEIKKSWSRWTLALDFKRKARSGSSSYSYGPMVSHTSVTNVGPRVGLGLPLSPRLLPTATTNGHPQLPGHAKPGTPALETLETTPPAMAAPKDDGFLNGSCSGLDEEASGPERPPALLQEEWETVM
Method: COS-7 cells were transfected in 24-well plates when the cells were 85 to 95% of confluency using 200 ng of plasmid DNA that was purified by cesium chloride/ethidium bromide gradient centrifugation for each well. Assays were conducted 72 to 96 hours after transfection.
Stimulation of cells with peptide analogs was performed in 24-well plates. Cells were rinsed with 0.5 mL of binding buffer and treated with 200 μL of cAMP assay buffer (Dulbecco's modified Eagle's medium containing 2 mM 3-isobutyl-1-methylxanthine, 1 mg/mL bovine serum albumin, 35 mM Hepes-NaOH, pH 7.4) and 100 μL of binding buffer containing varying amounts of peptide analog (final volume=300 μL). The medium was removed after incubation for 1 h at room temperature, and the cells were frozen (−80° C.), lysed with 0.5 mL 50 mM HCl, and refrozen (−80° C.). The cAMP content of the diluted lysate was determined by radioimmunoassay. Where possible, cAMP EC50 and Maximum response values were determined using nonlinear regression (see below).
All calculations were performed using Microsoft Excel. Nonlinear regression analysis of cAMP stimulation data was performed using parameters, defined as the Minimum, Maximum, Emax, midpoint (EC50), and slope of the response curve. The predicted response (yp) for a given dose (x) of peptide was calculated using the following equation: yp=Min+[(Max−Min)/(1+(EC50/x)^slope)]. […] The statistical significance between two data sets was determined using a one-tailed Student's t-test, assuming unequal variances for the two sets.

PTH-1 receptor = target: T2, PTH-1 receptor (Homo sapiens, UniProt Q03431); experiment: Competition binding with 125I-rPTH(1-34) in HKRK-B7 cells; parameters: expressed in transfected cells; host or cells: LLC-PK1 porcine kidney cells, clone HKRK-B7; conditions: 125I-rPTH(1-34) tracer
T2 sequence (Q03431 27-593): T1 sequence (Q03431 27-593)
Method: Binding reactions were performed with stably transfected HKRK-B7 cells in 24-well plates. Cells were rinsed with 0.5 mL of binding buffer (50 mM Tris-HCl, 100 mM NaCl, 5 mM KCl, 2 mM CaCl2, 5% heat-inactivated horse serum, 0.5% fetal bovine serum, adjusted to pH 7.7 with HCl), and treated successively with 100 μL binding buffer, 100 μL of binding buffer containing various amounts of unlabeled competitor ligand, and 100 μL of binding buffer containing ca. 100,000 cpm of ^125I-rPTH(1-34) (ca. 26 fmol). Incubations (final volume=300 μL) were at 15° C. for 4 h. Cells were then placed on ice, the binding medium was removed, and the monolayer was rinsed three times with 0.5 mL of cold binding buffer. The cells were subsequently lysed with 0.5 mL 5N NaOH and counted for radioactivity. The nonspecific binding for each experiment was determined by competition with a 1 μM dose of unlabeled rPTH(1-34). The maximum specific binding (B0) was the total radioactivity bound in the absence of unlabeled PTH ligand, corrected for nonspecific binding. Binding IC50 values were determined using nonlinear regression (see below).
All calculations were performed using Microsoft Excel. […] The predicted response (yp) for a given dose (x) of peptide was calculated using the following equation: yp=Min+[(Max−Min)/(1+(EC50/x)^slope)]. […]

[1] = test system: truncated PTH-1 receptor rP1R-ΔNt; experiment: cAMP with truncated rat PTH-1 receptor lacking the N-terminal extracellular domain (rP1R-ΔNt); assay type: cell-based; conditions: COS-7 cells expressing rP1R-ΔNt
PTH-1 receptors = conditions: cells expressing (high levels of) PTH-1 receptors; Luck et al. 1999; read-out: EC50 adenyl cyclase/cAMP; cited from earlier work
[2] = test system: truncated PTH-1 receptor rP1R-ΔNt; conditions: Luck et al. 1999; cited from earlier work
[3] = COS-7 cells, WT hPTH-1 receptor

CCCC[C@H](NC(=O)[C@H](CCCNC(=N)N)NC(=O)[C@H](CCC(=O)O)NC(=O)[C@@H](NC(=O)[C@H](CO)NC(=O)[C@H](C)NC(=O)[C@H](CC(C)C)NC(=O)[C@H](Cc1c[nH]cn1)NC(=O)[C@H](CCCCN)NC(=O)CNC(=O)[C@H](CC(C)C)NC(=O)[C@H](CC(N)=O)NC(=O)[C@H](Cc1c[nH]cn1)NC(=O)[C@H](CCCC)NC(=O)[C@H](CC(C)C)NC(=O)[C@H](CCC(N)=O)NC(=O)[C@@H](NC(=O)[C@H](CCC(=O)O)NC(=O)[C@H](CO)NC(=O)[C@@H](NC(=O)[C@H](C)N)C(C)C)[C@@H](C)CC)C(C)C)C(=O)N[C@@H](CCC(N)=O)C(=O)N[C@@H](Cc1c[nH]c2ccccc12)C(=O)N[C@@H](CC(C)C)C(=O)N[C@@H](CCCNC(=N)N)C(=O)N[C@@H](CCCCN)C(=O)N[C@@H](CCCCN)C(=O)N[C@@H](CC(C)C)C(=O)N[C@@H](CCC(N)=O)C(=O)N[C@@H](CC(=O)O)C(=O)N[C@H](C(=O)N[C@@H](Cc1c[nH]cn1)C(=O)N[C@@H](CC(N)=O)C(=O)N[C@@H](Cc1ccc(O)cc1)C(N)=O)C(C)C [[Nle8, 21, Y34]rPTH(1-34), [Nle^8,21,Tyr^34]-rPTH(1-34)NH2, reference compound]
Emax (WT hPTH-1 receptor; [3]): 226 ± 31 picomole/well

AVAEIQLMHAR-NH2 [compound 6, AlaValAlaGluIleGlnLeuMetHisAlaArg-amide]
Emax (WT hPTH-1 receptor; [3]): 238 ± 20 picomole/well
EC50 (WT hPTH-1 receptor; COS-7 cells, WT hPTH-1 receptor, cAMP, read-out: EC50): 29.1 ± 15.3 µM

AVAEIQLMHARAKH-NH2 [Peptide #1, AlaValAlaGluIleGlnLeuMetHisAlaArgAlaLysHis-amide]
Emax (WT hPTH-1 receptor; [3]): 243 ± 63 picomole/well
EC50 (WT hPTH-1 receptor; COS-7 cells, WT hPTH-1 receptor, cAMP, read-out: EC50 Log M (converted)): 1 µM

AVAEIQLMHARAKHLNSMERVEWLRKKLQDVHNY-NH2 [Peptide #7]
improvement in binding affinity as compared to rPTH(1-34) (PTH-1 receptor): about 2 fold
EC50 (WT hPTH-1 receptor): 313 ± 121 µM
Emax (WT hPTH-1 receptor; [3]): 222 ± 31 picomole/well

AVSEIQLMHNLGKH-NH2 [native rPTH(1-14), AVSEIQLMHNLGKH, reference compound]
cAMP formation with rP1R-ΔNt (in words) [1]: stimulated cAMP formation
EC50 (PTH-1 receptors): ~100 µM and 100 µM
potency with truncated vs intact rPTH-1 receptor (in words) [2]: as potent
Emax (WT hPTH-1 receptor; [3]): 221 ± 22 picomole/well
